Patent US20050069532A1, “Treatment of bacterial infection with elastase” (priority 2002, published 2005)
Residues, ends and D or L forms follow the SMILES beside them. *: point of attachment. MeOSuc = COC(=O)CCC(=O)*; CH2Cl = ClC*

Legend:
[1] = tested on: neutrophils; conditions: cited from earlier work
[2] = tested on: human neutrophils infected with Shigella; type: cell-based; conditions: 20 μM
[3] = tested on: neutrophils; assay: Cytotoxicity of inhibitor by lactate dehydrogenase (LDH) release
[4] = tested on: human neutrophils infected with wild type Shigella; type: cell-based; conditions: 20 μM, 10 bacteria/neutrophil
[5] = tested on: human neutrophils infected with Shigella; conditions: 20 μM, LDH release after 2 h incubation
[6] = tested on: Shigella virulence proteins (IpaA, IpaB, IpaC, IcsA); type: biochemical, Shigella flexneri
[7] = molecular target: neutrophil elastase in hNEGP (Homo sapiens, UniProt P08246); type: biochemical
[8] = molecular target: T1, Neutrophil elastase (Homo sapiens, UniProt P08246); assay: Neutrophil elastase enzymatic assay in hNEGP (N-methoxysuccinyl-Ala-Ala-Pro-Val-p-nitroanilide substrate); conditions: hNEGP pretreated with inhibitor (PMSF 1 mM, rm temp 20 min)
T1 sequence (P08246 30-267): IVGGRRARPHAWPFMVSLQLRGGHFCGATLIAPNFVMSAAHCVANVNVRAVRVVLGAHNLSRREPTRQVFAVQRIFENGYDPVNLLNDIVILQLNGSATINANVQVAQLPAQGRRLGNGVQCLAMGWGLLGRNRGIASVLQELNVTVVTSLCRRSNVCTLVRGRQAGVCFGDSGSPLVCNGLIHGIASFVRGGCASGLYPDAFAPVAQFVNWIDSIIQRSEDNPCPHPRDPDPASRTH
Description: Neutrophil elastase activity of intact neutrophils was determined as previously described (Huang et al., “Effect of Trifluoromethyl Ketone-Based Elastase Inhibitors on Neutrophil Function in Vitro,” J Leukoc Biol 64:322-330 (1998), which is hereby incorporated by reference).

[9] = tested on: Secreted proteins from Shigella; type: biochemical
[10] = tested on: InvG
[11] = tested on: OmpA of nonpathogenic Escherichia coli; conditions: 4 h with 106 bacteria; cited from earlier work
[12] = tested on: wild-type Shigella flexneri (M90T); type: cell-based
[13] = tested on: Secreted proteins from wild type Salmonella typhimurium (strain SL1344); type: biochemical
[14] = tested on: MxiA and MxiD; type: biochemical, Shigella
[15] = tested on: Cathepsin G; conditions: cited from earlier work
[16] = tested on: neutrophil elastase; conditions: cited from earlier work
[17] = tested on: Proteinase 3; conditions: cited from earlier work

Sequence of InvG (P35672 25-562): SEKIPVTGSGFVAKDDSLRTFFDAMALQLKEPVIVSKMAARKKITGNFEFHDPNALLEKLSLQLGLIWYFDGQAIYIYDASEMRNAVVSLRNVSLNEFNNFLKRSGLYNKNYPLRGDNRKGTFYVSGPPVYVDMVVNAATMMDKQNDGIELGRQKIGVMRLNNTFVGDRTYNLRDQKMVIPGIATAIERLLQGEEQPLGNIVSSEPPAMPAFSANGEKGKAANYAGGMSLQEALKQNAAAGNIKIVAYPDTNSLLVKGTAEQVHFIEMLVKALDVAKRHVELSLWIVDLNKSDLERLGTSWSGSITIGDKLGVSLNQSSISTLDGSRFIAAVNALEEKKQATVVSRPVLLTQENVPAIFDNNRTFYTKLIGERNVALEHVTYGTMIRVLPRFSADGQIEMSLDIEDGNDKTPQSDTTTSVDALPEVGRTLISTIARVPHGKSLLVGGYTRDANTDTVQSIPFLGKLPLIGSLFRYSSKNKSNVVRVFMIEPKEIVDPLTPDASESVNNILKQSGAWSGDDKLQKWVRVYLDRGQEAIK
Sequence of OmpA of nonpathogenic Escherichia coli (P0A910 22-346): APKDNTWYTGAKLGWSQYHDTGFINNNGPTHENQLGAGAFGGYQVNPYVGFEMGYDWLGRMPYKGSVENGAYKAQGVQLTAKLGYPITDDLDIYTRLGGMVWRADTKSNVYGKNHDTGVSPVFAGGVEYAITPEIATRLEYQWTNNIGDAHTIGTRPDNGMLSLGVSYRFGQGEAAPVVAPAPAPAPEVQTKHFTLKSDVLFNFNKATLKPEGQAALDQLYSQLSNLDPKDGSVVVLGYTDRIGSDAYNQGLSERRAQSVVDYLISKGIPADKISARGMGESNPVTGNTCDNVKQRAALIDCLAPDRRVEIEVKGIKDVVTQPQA

CC(C)C(NC(=O)[C@@H]1CCCN1C(=O)[C@@H](NC(=O)c1ccc(C(=O)NS(=O)(=O)c2ccc(Br)cc2)cc1)C(C)C)C(=O)C(F)(F)F (stereo partly drawn) [ICI-200355]
effect on ingestion or killing of non-virulent bacteria [1]: does not affect
location of non-invasive Shigella strain in neutrophils incubated with inhibitor [2]: remained in the phagosome
location of wild type Shigella in neutrophils pre-incubated with inhibitor ([2]; fixed 30 min post-infection): free in the cytoplasm
cytotoxicity (LDH release) [3]: not cytotoxic
Shigella survival in inhibitor-treated neutrophils versus controls [4]: survived indeed better
neutrophil cell death with noninvasive Shigella control strains after inhibitor pretreatment [5]: no cell death

Cathepsin G
degradation of Shigella effectors [6]: did not degrade

COC(=O)CCC(=O)N[C@@H](C)C(=O)N[C@@H](C)C(=O)N1CCC[C@H]1C(=O)N[C@H](C(=O)CCl)C(C)C [MeOSuc-AAPV-cmk, MeOSucAlaAlaProVal-chloromethyl ketone] (MeOSuc-AAPV-CH2Cl)
blocking of hNEGP degradation of IpaA, B, C and IcsA [7]: effectively blocked degradation
inhibition of neutrophil elastase activity in hNEGP [8]: completely inhibited

neutrophil elastase
cleavage of proteins not associated with virulence (SepA and OspF) [9]: remained intact
cleavage of virulence factors (e.g. VirA and the Ipas) [9]: cleaved
degradation of InvG [10]: not degraded
neutrophil elastase concentration that partially digests OmpA [11]: 2 µM
neutrophil elastase concentration affecting bacterial viability [12]: > 2,000 nM
degradation of FliB and FliC [13]: not degraded
degradation of SipA, B, C and HAPs [13]: degraded
degradation of MxiA and MxiD [14]: not degraded
degradation of OmpA in Shigella or E. coli [6]: not degraded
neutrophil elastase concentration at which IcsA was degraded [6]: 1.2 nM
neutrophil elastase concentration that cleaved Shigella virulence proteins significantly [6]: ≥ 1.2 nM

O=S(=O)(F)Cc1ccccc1 [PMSF, phenylmethylsulfonyl fluoride]
blocking of hNEGP degradation of IpaA, B, C and IcsA [7]: blocked the degradation
inhibition of neutrophil elastase activity in hNEGP [8]: completely inhibited

B1: SLPI: physiologic inhibitor, human Secretory Leukocyte Protease Inhibitor (protein, UniProt P03973 26-132, looked up)
Antileukoproteinase: SGKSFKAGVCPPKKSAQCLRYKKPECQSDWQCPGKKRCCPDTCGIKCLDPVDTPNPTRRKPGKCPVTYGQCLMLNPPNFCEMDGQCKRDLKCCMGMCGKSCVSPVKA
block of Cathepsin G [15]: blocks
blocking of hNEGP degradation of IpaA, B, C and IcsA [7]: effectively blocked degradation
block of neutrophil elastase [16]: blocks
inhibition of neutrophil elastase activity in hNEGP [8]: completely inhibited
block of Proteinase 3 [17]: not
